{"source": "patent US20060073529A1", "about": "“Luciferyl peptide substrate” (priority 2004, published 2006)", "key": {"[1]": {"system": "LNCaP, a prostate cancer cell line that produces PSA", "experiment": "in vitro model: PSA-specific substrate on PSA secreting cells (FIG. 7)", "format": "cell-based", "details": "serum-free media", "procedure": "The LNCaP cells were incubated for 5 and 19 hours, which represented two time intervals during which the cells were to synthesize PSA, and both cell lines were transfected with SKLQ-aLuc to produce luciferase. […] (“DHT”) was used to investigate its influence on cell growth and PSA production. The cell culture media was serum-free to prevent PSA from forming complexes with various serine-protease inhibitors that are present in the serum."}, "[2]": {"system": "luciferase", "experiment": "imaging of mice expressing the luc gene after substrate injection", "format": "in vivo, mouse", "details": "substrate injected, no protease injected", "method": "In these experiments, injection of the mice with luciferin activates the luciferin-luciferase reaction and the subsequent emission of light, i.e., photons, which can be monitored outside the body using low light imaging systems, based on charge coupled device (“CCD”) cameras.\nIn FIG. 4A, the pictured mouse was injected with luciferin. […] In FIG. 4B, the mice were injected with the modified substrate N-Ac-Phe-aminoluciferin. […] The mouse pictured on the right was subjected to further injections with chymotrypsin at selected sites. Chymotrypsin is a proteolytic enzyme that can use N-Ac-Phe-aminoluciferin as a substrate."}, "[3]": {"system": "LNCaP tumor (PSA)", "experiment": "in vivo model: SCID mice bearing subcutaneous LNCaP tumor (FIG. 8)", "parameters": "species or system mouse", "details": "FIG. 8B", "procedure": "The peptides were then tested in severe compromised immune deficiency (SCID) mice that bore an LNCaP tumor implanted at a subcutaneous site. […] The mice were injected with luciferin to localize the tumors and confirm their presence. […] The aminoluciferin released from the cleavage of the peptide by PSA is transported across the LNCaP cell membrane and reacts with luciferase to emit light. Thus, the aminoluciferyl peptide is activated by PSA and consequently can be used to target PSA producing cells in animal models."}, "[4]": {"target": "luciferase (Photinus pyralis, UniProt P08659)", "sequence (P08659 whole entry)": "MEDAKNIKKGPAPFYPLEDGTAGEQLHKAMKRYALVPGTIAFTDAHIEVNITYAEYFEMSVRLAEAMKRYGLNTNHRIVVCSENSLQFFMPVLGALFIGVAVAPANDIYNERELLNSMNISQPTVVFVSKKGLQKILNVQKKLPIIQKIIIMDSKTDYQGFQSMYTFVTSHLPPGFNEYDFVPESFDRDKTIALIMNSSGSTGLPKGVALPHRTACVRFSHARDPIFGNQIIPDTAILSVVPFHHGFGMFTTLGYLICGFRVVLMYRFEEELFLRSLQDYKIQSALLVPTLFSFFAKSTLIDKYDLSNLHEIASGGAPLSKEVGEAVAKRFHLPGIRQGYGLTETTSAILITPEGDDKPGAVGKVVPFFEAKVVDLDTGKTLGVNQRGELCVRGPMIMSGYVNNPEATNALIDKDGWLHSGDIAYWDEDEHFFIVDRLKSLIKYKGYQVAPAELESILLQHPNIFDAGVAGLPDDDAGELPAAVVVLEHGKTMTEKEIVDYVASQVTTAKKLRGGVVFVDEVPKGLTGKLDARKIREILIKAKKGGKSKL", "details": "in the presence of ATP, Mg2+/O2 and luciferase; cited from earlier work"}, "[5]": {"system": "chymotrypsin", "experiment": "protease assay of FIG. 3, performed in culture", "format": "cell-based", "source_text": "The procedure described in FIG. 2 may be used in in vivo protease assays. Naturally occurring proteases can be used to convert luciferylpeptides to aminoluciferin. These naturally occurring proteases may be associated with a physical state of the body, an organ, tissue, or cells, or may be associated with the location of particular conditions. There, the luciferylpeptide, N-Ac-Phe-aminoluciferin, was synthesized from a solution of 6-amino-2-cyanobenzothiazole, pursuant to the procedure set forth in Monsees et al., supra. […] The aminoluciferin was then available for reaction with luciferase, and in the presence of ATP and O2 in the cells, produced visible light and oxyaminoluciferin. The procedure shown in FIG. 3 was initially performed in culture and subsequently in a transgenic mouse model. This procedure can be modified by adding different compounds to the aminoluciferin, and cleaving the conjugate at the appropriate time and place with specific enzymes."}, "[6]": {"system": "chymotrypsin", "experiment": "in vivo protease assay: luc mice given substrate plus chymotrypsin injections at selected sites", "parameters": "species or system mouse", "details": "mice expressing luc gene, further injections with chymotrypsin at selected sites", "procedure": "In FIG. 4A, the pictured mouse was injected with luciferin. […] In FIG. 4B, the mice were injected with the modified substrate N-Ac-Phe-aminoluciferin. […] The dramatic reduction in signal intensity (note scales on images) on the second mouse is due to the lack of freely available substrate for the luciferase reaction. The mouse pictured on the right was subjected to further injections with chymotrypsin at selected sites. Chymotrypsin is a proteolytic enzyme that can use N-Ac-Phe-aminoluciferin as a substrate. […] The freely available aminoluciferin was then catalyzed by luciferase to generate the photons seen in the photograph. […] It can thus be observed that the use of aminoluciferin substrates results in increased versatility for in vivo assays such that protease activity can be assessed in live cells in vivo or in a test tube.\nIn a one embodiment of the invention, peptide sequences that are conjugated to aminoluciferin are cleaved by the protease chymotrypsin or by chymotrypsin-like proteases, such as, for example, PSA, a clinical marker for prostate cancer."}}, "note": "The star is where a group is joined. aminoluciferin = O=C(O)[C@H]1CSC(c2nc3ccc(N*)cc3s2)=N1", "data": [{"compound": "C[C@]12CCC(=O)C[C@@H]1CC[C@@H]1[C@@H]2CC[C@]2(C)[C@@H](O)CC[C@@H]12", "note": "[DHT, Dihydroxytestosterone]", "values": [{"measurement": "influence on PSA levels", "setting": "[1]; LNCaP/PC3M", "result": "does not appear to influence"}, {"measurement": "influence on cell growth", "setting": "[1]; LNCaP/PC3M", "result": "does not appear to influence"}]}, {"compound": "O=C(O)[C@H]1CSC(c2nc3ccc(O)cc3s2)=N1", "note": "[luciferin, (D)-(−)-2-(6′-Hydroxy-2′-benzothiazolyl)-2-thiazoline-4-carboxylic acid]", "values": [{"measurement": "photon emission from the mouse", "setting": "[2]", "result": "most of the tissues of this mouse emitted visible light"}]}, {"compound": "Ac-Ser-Lys-Leu-Gln-aLuc (Ac-SKLQ-aminoluciferin; SMILES CC(=O)N[C@@H](CO)C(=O)N[C@@H](CCCCN)C(=O)N[C@@H](CC(C)C)C(=O)N[C@@H](CCC(N)=O)C(=O)Nc1ccc2nc(C3=N[C@@H](C(=O)O)CS3)sc2c1) [SKLQ-aLuc]", "values": [{"measurement": "light emission from LNCaP tumors", "setting": "[3]", "result": "light emission from these tumors"}, {"measurement": "amount of aminoluciferyl peptide detected in the cells versus PSA secreted", "setting": "[1]; LNCaP incubated 5 and 19 hours, PC3M as non-PSA line", "result": "directly proportional to the amount of PSA secreted into the media by the LNCaP cells"}]}, {"compound": "Nc1ccc2nc(C3=N[C@@H](C(=O)O)CS3)sc2c1", "note": "[aminoluciferin, D-(−)-2-(6′-amino-2′-benzothiazolyl)-Δ^2-thiazoline-4-carboxylic Acid]", "values": [{"measurement": "light generation compared with luciferin", "setting": "[4]", "result": "generates light to the same extent as does luciferin"}]}, {"compound": "CC(=O)N[C@@H](Cc1ccccc1)C(=O)Nc1ccc2nc(C3=N[C@@H](C(=O)O)CS3)sc2c1", "note": "[N-Ac-Phe-aminoluciferin]", "values": [{"measurement": "luminescence of the intact luciferylpeptide", "setting": "[5]; before addition of chymotrypsin", "result": "prevented from luminescing"}, {"measurement": "cleavage of the luciferylpeptide by the protease", "setting": "[5]; upon addition of chymotrypsin", "result": "aminoluciferin was cleaved from the luciferylpeptide"}, {"measurement": "photon emission from the mouse after protease injection", "setting": "[6]", "result": "only the sites where the protease enzyme was injected produced detectable signals"}, {"measurement": "photon emission from the mouse", "setting": "[2]", "result": "only isolated regions of the mouse produced low level photon emission"}]}]}
